Source: ChEMBL document CHEMBL3797030, “Anti-hepatitis C Virus Natural Product from a Fungus, Penicillium herquei” (J Nat Prod, 2016)

Test system: Hepatitis C virus
Experiment: Antiviral activity against Hepatitis C virus J6/JFH1 infected in human Huh7.5.1 cells assessed as reduction in amount of core HCV protein after 72 hrs by focus formation assay
Assay type: functional, organism-based, Hepacivirus hominis
Conditions: J6/JFH1, Huh-7, 72 h

IC50 [µM]	Compound
> 40	COC1=C(O)C2=C3O[C@H](C)C(C)(C)[C@]3(O)C(=O)c3c(C)cc(O)c(c32)C1=O
> 40	COc1c(O)c2c3c(c1O)C(=O)[C@@]1(O)C(=C3C(C)=C(O)C2=O)O[C@@H](C)C1(C)C

The remaining lines, values behind:

Compound	IC50 [µM]
C[C@H]1CCN2C[C@]34Cc5c([nH]c6ccccc56)C(C)(C)[C@@H]3C[C@]12C(=O)N4	> 40
C[C@H]1CCN2CC34Cc5c([nH]c6c7c(ccc56)OC(C)(C)CC7=O)C(C)(C)[C@@H]3CC12C(=O)N4 (some centres not stated)	5.1
C[C@H]1CCN2C[C@]34C[C@@]5(C(=O)Nc6c5ccc5c6C(=O)CC(C)(C)O5)C(C)(C)[C@@H]3C[C@]12C(=O)N4	> 40
COc1c(O)c2c3c(c1O)C(=O)[C@@]1(O)C(=C3C(C)=CC2=O)O[C@H](C)C1(C)C	> 40
COC1=N[C@]23CN4CC[C@@](C)(O)[C@]14C[C@H]2C(C)(C)[C@@]1(C3)C(=O)Nc2c1ccc1c2C(=O)CC(C)(C)O1	> 40
